Measurements: US9512107B2, “Therapeutically active compositions and their methods of use” (Agios Pharmaceuticals, Inc., priority 2012, dated 2016)
Positions count from the first letter of the chain named. Like-named read-outs stand apart in the source and are kept apart here.

Legend:
IDH2 R172K = molecular target: T1, IDH2 R172K (Homo sapiens, UniProt P48735, R172K); assay: IDH2 R172K enzymatic assay (NADPH cofactor depletion, diaphorase/resazurin readout); type: biochemical; conditions: read-out: Enz R172K
T1 sequence (P48735 40-452 R172K): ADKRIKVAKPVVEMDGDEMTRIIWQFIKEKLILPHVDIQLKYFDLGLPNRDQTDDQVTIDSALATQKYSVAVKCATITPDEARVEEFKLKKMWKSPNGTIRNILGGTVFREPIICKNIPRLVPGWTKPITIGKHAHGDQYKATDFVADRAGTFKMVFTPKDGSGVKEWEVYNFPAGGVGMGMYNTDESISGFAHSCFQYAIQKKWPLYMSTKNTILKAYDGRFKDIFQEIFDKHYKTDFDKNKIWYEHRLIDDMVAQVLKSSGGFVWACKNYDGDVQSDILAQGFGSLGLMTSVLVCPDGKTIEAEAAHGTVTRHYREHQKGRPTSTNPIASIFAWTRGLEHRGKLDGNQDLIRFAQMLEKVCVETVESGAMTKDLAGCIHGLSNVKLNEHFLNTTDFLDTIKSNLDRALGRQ
Outline: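 Compound was preincubated with IDH2 R172K for 1 h at room temperature, then the reaction was started with substrate mix containing 50 μM NADPH and 6.3 mM α-KG. After another 1 h at room temperature, stop mix with diaphorase and resazurin consumed the remaining NADPH, and resorufin fluorescence was read.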

[1] = system: U87MG pLVX-IDH2 R140Q-neo cells; assay: U87MG pLVX-IDH2 R140Q-neo cell based assay, 2-HG in media by LC-MS at 48 hours
Outline: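 U87MG cells stably expressing IDH2 R140Q were seeded overnight, then exposed to compound at 0.2% final DMSO at 37 °C, 5% CO2. 2-HG in the medium was quantified by LC-MS at 48 h. Growth inhibition was read by CellTiter-Glo luminescence at 72 h.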

IDH2 R140Q = molecular target: T2, IDH2 R140Q (Homo sapiens, UniProt P48735, R140Q); assay: IDH2 R140Q enzymatic assay (cofactor depletion, similar format); type: biochemical; conditions: read-out: Enz R140Q
T2 sequence (P48735 40-452 R140Q): T1 sequence (P48735 40-452 R172K) with R101Q, K133R

Row | IC50 (IDH2 R172K) | IC50 ([1]; Homo sapiens, U-87 MG) | IC50 (IDH2 R140Q) | IC50 [1] | Structure (SMILES)
1 | 100 to 1000 nM | < 100 nM | 100 to 1000 nM |  | COCCCNc1nc(Nc2ccnc(C(F)(F)F)c2)nc(-c2cccc(C(F)(F)F)n2)n1 [Compound 528, N-(3-Methoxy-propyl)-N′-(2-trifluoromethyl-pyridin-4-yl)-6-(6-trifluoromethyl-pyridin-2-yl)-[1,3,5]triazine-2,4-diamine]
2 | < 100 nM | < 100 nM | 100 to 1000 nM |  | CNc1cccc(-c2nc(Nc3cc(F)cc(F)c3)nc(NC(C)C)n2)n1 [Compound 465]
3 | 100 to 1000 nM | 100 to 1000 nM | < 100 nM |  | CC(C)Nc1nc(Nc2ccccc2)nc(-c2ccccn2)n1 [Compound 214, N-Isopropyl-N′-phenyl-6-pyridin-2-yl-[1,3,5]triazine-2,4-diamine]
4 | < 100 nM | < 100 nM | < 100 nM |  | CC(C)Nc1nc(Nc2ccnc(C(F)(F)F)c2)nc(-c2ccccc2)n1 [Compound 202, N^2-isopropyl-6-phenyl-N^4-(2-(trifluoromethyl)pyridin-4-yl)-1,3,5-triazine-2,4-diamine]
5 | < 100 nM | < 100 nM | < 100 nM |  | CC(C)Nc1nc(Nc2cncc(C(F)(F)F)c2)nc(-c2ccccc2F)n1 [Compound 372, 6-(2-fluorophenyl)-N^2-isopropyl-N^4-(5-(trifluoromethyl)pyridin-3-yl)-1,3,5-triazine-2,4-diamine]
6 | 100 to 1000 nM | < 100 nM | 100 to 1000 nM |  | CC(C)Nc1nc(Nc2ccnc(Cl)c2)nc(-c2cccc(C(F)(F)F)n2)n1 [Compound 572, N2-(2-chloropyridin-4-yl)-N4-isopropyl-6-(6-(trifluoromethyl)pyridin-2-yl)-1,3,5-triazine-2,4-diamine]
7 | 100 to 1000 nM | < 100 nM | 100 to 1000 nM |  | CC(C)Nc1nc(Nc2ccc(F)nc2)nc(-c2nccc(C(F)(F)F)n2)n1 [Compound 535, N-(6-Fluoro-pyridin-3-yl)-N′-isopropyl-6-(4-trifluoromethyl-pyrimidin-2-yl)-[1,3,5]triazine-2,4-diamine]
8 | 1000 to 10000 nM | 1000 to 10000 nM | 100 to 1000 nM |  | CC(C)Nc1nc(Nc2ccccc2)nc(-c2cccnc2)n1 [Compound 114]
9 | 100 to 1000 nM | < 100 nM | < 100 nM |  | Cc1nc(-c2nc(Nc3cc(F)cc(F)c3)nc(NC(C)C)n2)co1 [Compound 476, N-(3,5-Difluoro-phenyl)-N′-isopropyl-6-(2-methyl-oxazol-4-yl)-[1,3,5]triazine-2,4-diamine]
10 | 100 to 1000 nM | < 100 nM | < 100 nM |  | CCC(C)CNc1nc(Nc2ccncc2)nc(-c2ccccc2)n1 (stereo not drawn) [Compound 220, N^2-(2-methylbutyl)-6-phenyl-N^4-(pyridin-4-yl)-1,3,5-triazine-2,4-diamine]
11 | < 100 nM | < 100 nM | < 100 nM |  | COc1ccc(F)c(-c2nc(Nc3ccnc(C(F)(F)F)c3)nc(NC(C)C)n2)c1 [Compound 630, 6-(2-Fluoro-5-methoxy-phenyl)-N-isopropyl-N′-(2-trifluoromethyl-pyridin-4-yl)-[1,3,5]triazine-2,4-diamine]
12 | 100 to 1000 nM | < 100 nM | 100 to 1000 nM |  | CC(C)Nc1nc(Nc2ccnc(C3(O)CC3)c2)nc(-c2cccc(C(F)(F)F)n2)n1 [Compound 674, 1-{4-[4-Isopropylamino-6-(6-trifluoromethyl-pyridin-2-yl)-[1,3,5]triazin-2-ylamino]-pyridin-2-yl}-cyclopropanol]
13 | 1000 to 10000 nM | 100 to 1000 nM | < 100 nM |  | CC(C)Nc1nc(Nc2ccccc2)nc(-c2ccccc2C#N)n1 [Compound 139]
14 | 1000 to 10000 nM | 100 to 1000 nM | 100 to 1000 nM |  | CC(C)C(CO)Nc1nc(Nc2ccccc2)nc(-c2ccccc2)n1 (stereo not drawn) [Compound 242, 3-methyl-2-(4-phenyl-6-(phenylamino)-1,3,5-triazin-2-ylamino)butan-1-ol]
15 | 100 to 1000 nM | < 100 nM | < 100 nM |  | CCOc1cc(Nc2nc(NC(C)C)nc(-c3ccccc3)n2)ccn1 [Compound 200, N^2-(2-ethoxypyridin-4-yl)-N^4-isopropyl-6-phenyl-1,3,5-triazine-2,4-diamine]
16 | 100 to 1000 nM | 100 to 1000 nM | < 100 nM |  | CC(C)Nc1nc(Nc2cccc(S(=O)(=O)C(C)C)c2)nc(-c2ccccc2)n1 [Compound 206, N^2-isopropyl-N^4-(3-(isopropylsulfonyl)phenyl)-6-phenyl-1,3,5-triazine-2,4-diamine]
17 | 100 to 1000 nM | 100 to 1000 nM | < 100 nM |  | CC(C)Nc1nc(Nc2ccccc2)nc(-c2cc(C(F)(F)F)ccn2)n1 [Compound 270, N^2-isopropyl-N^4-phenyl-6-(4-(trifluoromethyl)pyridin-2-yl)-1,3,5-triazine-2,4-diamine]
18 | 100 to 1000 nM | < 100 nM | 100 to 1000 nM |  | CS(=O)(=O)c1cccc(Nc2nc(NCC3CC3)nc(-c3cccc(C(F)(F)F)n3)n2)c1 [Compound 607, N2-(cyclopropylmethyl)-N4-(3-(methylsulfonyl)phenyl)-6-(6-(trifluoromethyl)pyridin-2-yl)-1,3,5-triazine-2,4-diamine]
19 | 100 to 1000 nM |  | 1000 to 10000 nM | < 100 nM | CC(C)Nc1nc(Nc2ccnc(F)c2)nc(-c2nccc(C(F)(F)F)n2)n1 [Compound 538]
20 | < 100 nM | < 100 nM | 100 to 1000 nM |  | CC(C)Nc1nc(Nc2cc(F)cc(F)c2)nc(-c2cc(O)cc(O)c2)n1 [Compound 642, 5-(4-((3,5-difluorophenyl)amino)-6-(isopropylamino)-1,3,5-triazin-2-yl)benzene-1,3-diol]
21 | 1000 to 10000 nM | 100 to 1000 nM | < 100 nM |  | FC(F)(F)CCNc1nc(Nc2ccncc2)nc(-c2ccccc2)n1 [Compound 263, 6-phenyl-N^2-(pyridin-4-yl)-N^4-(3,3,3-trifluoropropyl)-1,3,5-triazine-2,4-diamine]
22 | 100 to 1000 nM | < 100 nM | < 100 nM |  | CC(C)C(C)Nc1nc(Nc2ccncc2)nc(-c2ccccc2)n1 (stereo not drawn) [Compound 213, N^2-(3-methylbutan-2-yl)-6-phenyl-N^4-(pyridin-4-yl)-1,3,5-triazine-2,4-diamine]
23 | 1000 to 10000 nM | 1000 to 10000 nM | 100 to 1000 nM |  | CC(C)Nc1nc(Nc2ccccc2)nc(-c2ccccc2NS(C)(=O)=O)n1 [Compound 109]
24 | < 100 nM | < 100 nM | 100 to 1000 nM |  | CC#Cc1cccc(-c2nc(Nc3cc(F)cc(F)c3)nc(NC(C)C)n2)n1 [Compound 463, N-(3,5-Difluoro-phenyl)-N′-isopropyl-6-(6-prop-1-ynyl-pyridin-2-yl)-[1,3,5]triazine-2,4-diamine]
25 | 100 to 1000 nM | < 100 nM | < 100 nM |  | CC1CC1Nc1nc(Nc2ccncc2)nc(-c2ccccc2)n1 (stereo not drawn) [Compound 219, N^2-(2-methylcyclopropyl)-6-phenyl-N^4-(pyridin-4-yl)-1,3,5-triazine-2,4-diamine]
26 | 100 to 1000 nM | < 100 nM | 100 to 1000 nM |  | CC(C)Nc1nc(Nc2ccnc(C(C)(F)F)c2)nc(-c2cccc(C(C)(F)F)n2)n1 [Compound 576, 6-[6-(1,1-Difluoro-ethyl)-pyridin-2-yl]-N-[2-(1,1-difluoro-ethyl)-pyridin-4-yl]-N′-isopropyl-[1,3,5]triazine-2,4-diamine]
